Where a name gives a salt, the structure may show the parent alone. One block for each compound: values may come before it.
Key:
Hepa1c1c7 cells = experiment: cytotoxicity in Hepa1c1c7 cells; assay type: cell-based, murine; settings: Mus musculus, Hepa-1c1c7, read-out: quinone reductase (QR) induction IC50
quinone reductase = experiment: in vitro quinone reductase; assay type: cell-based, murine; settings: for CI, chemoprevention index (= IC50/CD): Hepa1c1c7 cells
[1] = in vitro hydroxyl radical-scavenging activity bioassay; assay type: biochemical

- CI, chemoprevention index (= IC50/CD) (quinone reductase): >5.2
SMILES: O=c1c(O[C@@H]2O[C@H](CO)[C@H](O)[C@H](O)[C@H]2O)c(-c2ccc(O)c(O)c2)oc2cc(O)cc(O)c12 [Compound 7, hyperoside]
- IC50 (Hepa1c1c7 cells): > 100 µM
- quinone reductase-inducing activity (in words) (quinone reductase): exhibited quinone reductase-inducing activity

SMILES: O=c1c(O[C@@H]2O[C@@H](CO)[C@H](O)[C@H]2O)c(-c2ccc(O)c(O)c2)oc2cc(O)cc(O)c12 [Compound 8, quercetin 3-O-α-L-arabinofuranoside]
- IC50 (Hepa1c1c7 cells): > 100 µM

SMILES: O=c1c(O[C@@H]2OC[C@@H](O)[C@H](O)[C@H]2O)c(-c2ccc(O)c(O)c2)oc2cc(O)cc(O)c12 [Compound 9, quercetin 3-O-β-D-xylopyranoside]
- IC50 (Hepa1c1c7 cells): > 100 µM

SMILES: O=C(O)c1cc(O)c(O)c(O)c1 [Compound 10, gallic acid]
- IC50 (Hepa1c1c7 cells): 55.3 ± 7.8 µM

- CI, chemoprevention index (= IC50/CD) (quinone reductase): 5.8 ± 0.82
SMILES: COC(=O)c1cc(O)c(O)c(O)c1 [Compound 11, gallic acid methyl ester]
- IC50 (Hepa1c1c7 cells): 82.4 ± 11.9 µM
- quinone reductase-inducing activity (in words) (quinone reductase): exhibited quinone reductase-inducing activity

SMILES: O=C(O)c1ccc(O)c(O)c1 [Compound 12, protocatechuic acid]
- IC50 (Hepa1c1c7 cells): > 100 µM
- quinone reductase-inducing activity (in words) (quinone reductase): exhibited quinone reductase-inducing activity
- CI, chemoprevention index (= IC50/CD) (quinone reductase): >24.4

SMILES: O=Cc1ccc(CO)o1 [Compound 14, hydroxymethylfurfural]
- quinone reductase-inducing activity (in words) (quinone reductase): exhibited quinone reductase-inducing activity

SMILES: CC(=O)OCc1ccc(C=O)o1 [Compound 15, acetyloxymethylfurfural]
- hydroxyl radical-scavenging activity (in words) [1]: showed activity in neither of these two assays
- quinone reductase-inducing activity (in words) (quinone reductase): showed activity in neither of these two assays

SMILES: COC(=O)CC(O)(CC(=O)OC)C(=O)O [Compound 16, 1,5-dimethyl citrate]
- hydroxyl radical-scavenging activity (in words) [1]: showed activity in neither of these two assays
- quinone reductase-inducing activity (in words) (quinone reductase): showed activity in neither of these two assays

- CI, chemoprevention index (= IC50/CD) (quinone reductase): 21.7 ± 2.8
SMILES: C[S@@+]([O-])CCCCN=C=S [L-sulforaphane, reference compound]
- IC50 (Hepa1c1c7 cells): 16.7 ± 1.9 µM

From PMC5685509 (Journal of agricultural and food chemistry, 2017)
